Structures can show the parent of a compound that is named as a salt.

For one experiment, the target named is T1, Kinase A and SpoOF (Bacillus subtilis, UniProt P16497).
T1 sequence (P16497 1-606): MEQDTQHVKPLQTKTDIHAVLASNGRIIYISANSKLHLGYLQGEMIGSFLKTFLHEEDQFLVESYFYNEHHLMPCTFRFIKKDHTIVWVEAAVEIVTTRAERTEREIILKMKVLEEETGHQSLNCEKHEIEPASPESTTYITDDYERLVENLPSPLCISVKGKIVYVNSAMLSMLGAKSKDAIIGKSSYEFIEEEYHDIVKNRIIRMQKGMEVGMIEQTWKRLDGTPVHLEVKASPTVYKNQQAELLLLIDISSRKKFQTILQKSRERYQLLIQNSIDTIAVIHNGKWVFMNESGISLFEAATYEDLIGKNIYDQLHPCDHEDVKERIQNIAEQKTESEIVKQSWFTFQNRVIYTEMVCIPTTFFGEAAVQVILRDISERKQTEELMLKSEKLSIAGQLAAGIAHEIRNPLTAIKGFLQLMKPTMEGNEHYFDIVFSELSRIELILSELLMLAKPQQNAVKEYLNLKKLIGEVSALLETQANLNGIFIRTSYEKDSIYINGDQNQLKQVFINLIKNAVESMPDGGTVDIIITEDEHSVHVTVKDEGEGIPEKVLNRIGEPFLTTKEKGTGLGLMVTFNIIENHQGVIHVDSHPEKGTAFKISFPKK
As to the kind of experiment: Autophosphorylation of Kinase A and transphosphorylation of SpoOF assay (HPK in vitro assay). The experiment is classed as biochemical. The following applies: inhibition of KinA autophosphorylation / SpoOF transphosphorylation, [32P]ATP, gel and phosphoimager. The procedure:
1. Autophosphorylation of Kinase A and Transphosphorylation of SpoOF Assay
To study the effect of the compounds of the present invention on the signal transduction process in bacteria, the inhibiting effect of the compounds on the sporulation operon proteins Kinase A and SpoOF was examined. Specifically, the inhibition of autophosphorylation of Kinase A and the transphosphorylation of SpoOF was determined in the following assays. The SpoOF response regulator is the primary substrate for phosphorylation by the protein kinase, Kin A, involved in the sporulation process in bacteria. See D. Burbulys, K. A. Trach, J. A. Hoch, Cell, 64, 545-552 (1991).
The following stock reagents were either prepared and used promptly or stored at the indicated temperature:
8× Salts: 2M KCl (5 mL), 1M MgCl2 (800 mL), 1M CaCl2 (100 mL), 10 mg/mL phenylmethylsulfonyl fluoride (200 mL), 1M dithioreitol (50 mL), 0.25M Na2 EDTA (32 mL) and H2 O 3.82 mL (-20°C.)
5× Loading Dye: 0.5M TRIS-HCl-pH 6.8 (7.5 mL), 10% SDS (2 mL) 0.1% bromophenol blue (0.5 mL), 100% glycerol (3 mL) and 12.5M 2-mercaptoethanol (0.3 mL)
1-1.3 mg/mL KinA:15 mM TRIS-HCl, pH 8.0, 6 mM KCl; 4 mM 2-mercaptoethanol; 40% glycerol (-20 C.)
1 mg/mL Spo0F: 17.5 mM TRIS-HCl, pH 8.0; 0.7 mM KCl; 0.7 mM MgCl2; 0.7 mM CaCl2; 5 mM 2-mercaptoethanol; 30% Glycerol (-20°C.)
5% Stacking Gel: 40% 29:1 acrylamide:bis acrylamide (1.25 mL), 0.5M TRIS-HCl, pH 6.8 (2.5 mL), 10% SDS (0.1 mL), D-H2 O (6.15 mL) 10% ammonium persulfate (100 mL) and TEMED (25 mL)
SDS Running Buffer: TRIS-BASE (3.02 g), glycine (14.4 g) SDS (1 g), D-H2 O (to 1 L)
The reaction mixture was prepared from 8× Salts (87 μL), 1M TRIS, pH 8 (118 EL), 50% glycerol (63 μL), Spo0F (14.1 μL) and KinA (7.0 μL). Microcentrifuge tubes were charged with the reaction mixture (18.5 μL) and a 1.0 mM solution of the test compound in 5% DMSO (18.5 μL), and incubated for 15 min on ice. 100 mM ATP solution (3.0 μI, containing 625 μCi [^32 P]ATP) was added, and the mixture left for 10 minutes at room temperature. The reaction was quenched with 5× loading dye (10 μL per tube) and the samples were loaded on a prepared 5% Stacking Gel, or stored on dry ice until ready for use. The prepared wells were filled with SDS Running Buffer, samples were loaded into the wells, and 80 volts were applied to the gel until the dye front reached the bottom of the stacking gel. The voltage was then increased to 250 volts until electrophoresis was complete. Radioactive bands in the gel corresponding to phosphorylated KinA and SpoOF were imaged and quantitated with a phosphoimager.
If either enzyme was inhibited (as evidenced by the absence of labelled protein in the developed gel), an IC50 was calculated by running the assay with a range of inhibitor concentrations from 1 to 500 μM. After electrophoresis of the reaction mixtures, percent inhibition was determined by measuring the concentration of radioactive phosphorus with a phosphoimager and calculating the values using a software program (BioRad Molecular Analyst).
Broadly, the IC50 is the concentration at which inhibition is half-maximal. The compound `NCCc1ccc(NC/C=C(/c2ccccc2)c2cccnc2)cc1` [Compound 20, Z-2-[4-(3-PHENYL-3-(3-PYRIDYL)PROPENYLAMINO)PHENYL]-ETHYLAMINE·OXALATE·0.2DIETHYL ETHER·0.15 ETHYL ACETATE·0.5 HYDRATE] yielded a 50% inhibitory concentration (IC50) greater than 500 µM. Regarding `NCCc1ccc(OCCC(c2ccccc2)c2ccccc2)cc1` [Compound 2, 2-[4-(3,3-DIPHENYLPROPOXY)PHENYL]ETHYLAMINE], the half-inhibitory concentration (IC50) was found to be 31.25 µM.

As for `N=C(N)NCc1cccc(OCCC(c2ccccc2)c2ccccc2)c1` [Compound 7, [3-(3,3-DIPHENYLPROPOXY)PHENYL]METHYLGUANIDINE BICARBONATE 0.5 HYDRATE], the 50% inhibitory concentration (IC50) was 60 µM.

As for `N=C(N)NCCc1ccc(OCCN(Cc2ccccc2)Cc2ccccc2)cc1` [Compound 23, 2-[4-(2-[N,N'-DIBENZYLAMINO]-ETHOXY)PHENYL]ETHYLGUANIDINE], the IC50 was 60 µM. `NCCc1ccc(OC(c2ccccc2)c2ccccc2)cc1` [Compound 10, 2-{4-(2-DIPHENYL-2-METHOXY)PHENYL}ETHYLAMINE·HYDROCHLORIDE·HYDRATE] displayed an IC50 of 68 µM. This IC50 and that of the compound before are within 1.5-fold of each other.

Regarding `NCCc1ccc(OCC=C(c2ccccc2)c2ccccc2)cc1` [Compound 9, 2-[4-(3,3-DIPHENYL-2-PROPENOXY)PHENYL]ETHYLAMINE HYDROCHLORIDE·0.5HYDRATE], the IC50 worked out at 41 µM. Regarding `NCCc1ccc(NC/C=C(\c2ccccc2)c2cccnc2)cc1` [Compound 21, E-2-[4-(3-PHENYL-3-(3-PYRIDYL)-2-PROPENYLAMINO)PHENYL]-ETHYLAMINE·OXALATE·0.33 ETHYL ACETATE·0.5 HYDRATE], the IC50 is greater than 500 µM. On to `O=C(O)C(=O)O.c1ccc(C(CCOc2ccc(N3CCNCC3)cc2)c2ccccc2)cc1` [Compound 14, 4-[4-(3,3-DIPHENYLPROPOXY)PHENYL]PIPERAZINE OXALATE], for which the IC50 is 130.4 µM.

Take `NCc1cccc(OCCC(c2ccccc2)c2ccccc2)c1` [Compound 8, [3-(3,3-DIPHENYLPROPOXY)PHENYL]METHYLAMINE·HYDROCHLORIDE·0.6 HYDRATE]: the IC50 is 42.9 µM. Same read-out and setting: with `C1=C(c2ccc(OCCC(c3ccccc3)c3ccccc3)cc2)CCNC1` [Compound 15, 4-[4-(3,3-DIPHENYLPROPYLOXY)PHENYL]-1,2,3,6-TETRAHYDROPYRIDINE·HYDROCHLORIDE 0.6 HYDRATE] the figure was 45.6 µM.

`N=C(N)NCCc1ccc(OCCC(c2ccccc2)c2ccccc2)cc1` [Compound 3, 2-[4-(3,3-DIPHENYLPROPOXY)PHENYL]ETHYLGUANIDINE] had a half-maximal inhibitory concentration (IC50) of 21.5 µM. Still for that read-out and setting: as for `Brc1ccc(OCCC(c2ccccc2)c2ccccc2)cc1` [Compound 17, 4-(3,3-DIPHENYLPROPOXY)BROMOBENZENE], the figure is 643.5 µM; as for `O=CN1CCN(c2ccc(OCCC(c3ccccc3)c3ccccc3)cc2)CC1` [Compound 12, 1-FORMYL-4-[4-(3,3-DIPHENYLPROPOXY)PHENYL]PIPERAZINE·0.5 HYDRATE], 165 µM; as for `NCCc1ccc(O[C@@H]2CC[C@H](c3ccccc3)c3ccccc32)cc1` (relative stereo) [Compound 6, 2-[4-(ClS-4-PHENYL-1,2,3,4-TETRAHYDRO-1-NAPHTHOXY)PHENYL]-ETHYLAMINE OXALATE], 68.9 µM. The compound `C1=C(c2ccc(OCCOC(c3ccccc3)c3ccccc3)cc2)CCNC1` [Compound 25, 4-{4-[2-(DIPHENYLMETHOXY) ETHOXY]PHENYL}-1, 2, 3, 6-TETRAHYDROPYRIDINE·MONOOXALATE 0.5 HYDRATE] registered a 50% inhibitory concentration (IC50) of 313 µM. As for `O=C(CC(c1ccccc1)c1ccccc1)Nc1ccc(N2CCNCC2)cc1` [Compound 13, 4-[4-(3,3-DIPHENYLPROPANOYLAMINO) PHENYL]PIPERAZINE·0.5 HYDRATE], the 50% inhibitory concentration (IC50) came to 379.4 µM.

On to `NCCCc1ccc(OCC=C(c2ccccc2)c2ccccc2)cc1` [Compound 11, 3-[4-(3,3-DIPHENYL-2-PROPENOXY)PHENYL]PROPYLAMINE·OXALATE], for which the concentration for half-maximal inhibition (IC50) was determined as 19.5 µM. This IC50 is about 19-fold lower than that of the compound before. The compound `c1ccc(C(OCCOc2ccc(N3CCNCC3)cc2)c2ccccc2)cc1` [Compound 24, 4-[4-{2-(DIPHENYLMETHOXY)ETHOXY}PHENYL]PIPERAZINE·CARBONATE 2.0 HYDRATE] yielded an IC50 of 769 µM. Against the preceding compound, the IC50 is about 39-fold higher.

Take `NCCc1ccc(OCCC(c2ccccc2)c2cccnc2)cc1` (stereo not drawn) [Compound 18, 2-[4-(3-PHENYL-3-(3-PYRIDYL)PROPOXY)PHENYL]ETHYLAMINE·OXALATE·0.1 HYDRATE]: the half-inhibitory concentration (IC50) is greater than 100 µM. Take `N=C(N)NCCc1ccc(OCCC2c3ccccc3-c3ccccc32)cc1` [Compound 4, {2-[4-[2-(9-FLUORENYL)ETHOXY]PHENYL]ETHYL}GUANIDINE]: the IC50 stood at 19.8 µM.

The test system of a further experiment is gram positive bacteria / Gram negative bacteria (Enterococcus faecalis, Staphylococcus aureus incl. methicillin resistant, Staphylococcus epidermidis …). In words: MIC antimicrobial assay (NCCLS microdilution broth method). The experiment is classed as cell-based. The following applies: MIC value range over the selected gram positive and gram negative test organisms; 35° C., 16-20 hours. As to the method: 2. MIC Antimicrobial Assay
The in vitro antimicrobial activity of the compounds was determined by the microdilution broth method following the test method from the National Committee for Laboratory Standards (NCCLS). This method is described in the NCCLS Document M7-A2, Vol.10, No. 8 "Methods for Dilution Antimicrobial Susceptibility Test for Bacteria that Grow Aerobically-Second Edition."
In this method two-fold serial dilutions of drug in cation supplemented Mueller-Hinton broth are added to wells in microdilution trays. The test organisms are prepared by adjusting the turbidity of actively growing broth cultures so that the final concentration of test organism after it is added to the wells is approximately 5×10^4 CFUs/well).
Following inoculation of the microdilution trays, the trays are incubated at 35° C. for 16-20 hours and then read. […] The amount of growth in the wells containing the test compound is compared with the amount of growth in the growth-control wells (no test compound) used in each tray. The following test organisms were utilized in the assay:
Enterococcus faecalis ATCC 29212
Enterococcus faecalis oc 3041
Enterococcus faecalis oc 2993
Methicillin resistant Staphylococcus aureus oc 2089
Methicillin resistant Staphylococcus aureus oc 667
Staphylococcus aureus ATCC 29213
Staphylococcus aureus ATCC 6538
Staphylococcus epidermidis oc 2603
Escherichia coli oc 2530 ss […]
On the technique in general: In broth dilution the organism is exposed to a series of concentrations in liquid medium.
In the case of `N=C(N)NCc1cccc(OCCC(c2ccccc2)c2ccccc2)c1` [Compound 7, [3-(3,3-DIPHENYLPROPOXY)PHENYL]METHYLGUANIDINE BICARBONATE 0.5 HYDRATE], the “MIC(G+/G-)” value is reported as 2-32.

These data come from patent US5773469A, “Diaryl antimicrobial agents” (Ortho Pharmaceutical Corporation, priority 1996, dated 1998).
